Data set [1] concerns Staphylococcus aureus. Kind of data set: Antibacterial activity against fluoroquinolone-sensitive Staphylococcus aureus 1146. The format is functional.
The target of data set [2] is Voltage-gated inwardly rectifying potassium channel KCNH2 (Homo sapiens, UniProt Q12809). Kind of data set: Inhibition of human ERG.
Data set [3] has as its system Staphylococcus aureus. Kind of data set: Antibacterial activity against Staphylococcus aureus containing DNA gyrase M121K mutations. It is filed as functional.
The subject of data set [4] is Staphylococcus aureus. The data set is described as follows: Antibacterial activity against fluoroquinolone-resistant Staphylococcus aureus 1095. The format is functional.
Data set [5] relates to Staphylococcus aureus. The data set is described as follows: Antibacterial activity against Staphylococcus aureus. The format is functional.
Data set [6] is described as follows: Inhibition of Staphylococcus aureus DNA topoisomerase 4.
The subject of data set [7] is Streptococcus pyogenes. Kind of data set: Antibacterial activity against Streptococcus pyogenes. It is filed as functional.
Data set [8] can be described thus: Inhibition of Staphylococcus aureus DNA gyrase.
Data set [9] concerns Staphylococcus aureus. Kind of data set: Antibacterial activity against Staphylococcus aureus containing DNA gyrase D83N mutations. The format is functional.
A short description of data set [10]: Ratio of fAUC in fluoroquinolone-resistant Staphylococcus aureus infected mouse neutropenic thigh model to MIC for fluoroquinolone-resistant Staphylococcus aureus.
The nature of data set [11]: Cmax in human. The format is ADME.
Data set [12] can be described thus: Fraction unbound in mouse plasma. It is filed as ADME, cell-free.
A short description of data set [13]: Fraction unbound in human plasma. It is filed as ADME, cell-free.
For data set [14], the system named is Staphylococcus aureus. Kind of data set: Antibacterial activity against fluoroquinolone-resistant Staphylococcus aureus infected in mouse neutropenic thigh model assessed as static dose required for bacterial stasis. The format is functional.
Data set [15] can be described thus: Clearance in mouse at 10 mg/kg, iv. The format is ADME, organism-based. Particulars: in vivo.
The nature of data set [16]: Fraction unbound in rat plasma. The format is ADME, cell-free.
Data set [17] can be described thus: Volume of distribution at steady state in mouse at 10 mg/kg, iv. The format is ADME, organism-based. Particulars: in vivo, read-out: Vdss.
The nature of data set [18]: Half life in rat at 2 mg/kg, iv. It is filed as ADME, organism-based. Conditions: in vivo.
Data set [19] in a line: Half life in mouse at 10 mg/kg, iv. It is filed as ADME, organism-based. Conditions: in vivo.

SMILES strings stand for the structures. pIC50: −log10 of the molar value. Values after ≈ are worked out from the molar mass of the structure shown.

Voltage-gated inwardly rectifying potassium channel KCNH2, sequence (Q12809 whole entry): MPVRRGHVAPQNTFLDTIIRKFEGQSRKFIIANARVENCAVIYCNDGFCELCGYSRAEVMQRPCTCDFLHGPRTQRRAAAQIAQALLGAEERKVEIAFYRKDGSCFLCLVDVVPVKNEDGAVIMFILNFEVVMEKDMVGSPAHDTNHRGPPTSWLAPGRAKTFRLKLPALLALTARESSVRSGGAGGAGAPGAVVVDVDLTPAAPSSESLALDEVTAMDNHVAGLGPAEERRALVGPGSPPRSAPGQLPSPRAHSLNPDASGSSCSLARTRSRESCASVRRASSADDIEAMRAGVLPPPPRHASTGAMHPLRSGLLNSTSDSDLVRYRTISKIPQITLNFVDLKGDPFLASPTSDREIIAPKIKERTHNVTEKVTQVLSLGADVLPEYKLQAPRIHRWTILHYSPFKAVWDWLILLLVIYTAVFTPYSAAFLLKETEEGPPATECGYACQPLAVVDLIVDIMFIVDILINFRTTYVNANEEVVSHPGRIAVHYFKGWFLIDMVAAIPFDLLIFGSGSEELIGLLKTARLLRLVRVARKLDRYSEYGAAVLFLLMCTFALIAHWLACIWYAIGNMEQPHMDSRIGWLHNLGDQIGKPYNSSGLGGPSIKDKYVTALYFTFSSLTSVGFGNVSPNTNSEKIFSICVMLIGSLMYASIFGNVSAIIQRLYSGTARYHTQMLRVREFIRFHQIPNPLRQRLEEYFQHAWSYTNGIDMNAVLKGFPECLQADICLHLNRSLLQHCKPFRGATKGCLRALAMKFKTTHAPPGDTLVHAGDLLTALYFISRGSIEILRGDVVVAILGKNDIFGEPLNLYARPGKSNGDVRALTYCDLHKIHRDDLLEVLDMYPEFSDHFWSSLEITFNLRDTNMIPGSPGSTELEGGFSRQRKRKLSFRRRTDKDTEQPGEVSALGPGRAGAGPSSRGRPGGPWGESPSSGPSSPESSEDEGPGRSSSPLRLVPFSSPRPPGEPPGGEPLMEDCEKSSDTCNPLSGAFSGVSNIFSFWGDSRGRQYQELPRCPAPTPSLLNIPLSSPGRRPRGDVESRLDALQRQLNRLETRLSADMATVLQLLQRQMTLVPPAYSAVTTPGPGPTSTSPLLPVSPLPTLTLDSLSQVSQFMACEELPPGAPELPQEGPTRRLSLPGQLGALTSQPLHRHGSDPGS

On to `COc1ccc2ncc(F)c([C@@H](O)CC[C@@H]3CCN(C4CC(c5c(F)cccc5F)C4)C[C@@H]3C(=O)O)c2c1` (some centres not stated), for which the MIC (as a rule, the smallest concentration in the dilution series that meets the test's criterion for growth inhibition) is at most 0.063 µg/mL in data set [1], 2.8 µg/mL (≈ 5.3 µM) in [3], 0.079 µg/mL (≈ 0.149 µM) in data set [4] and 3.2 µg/mL (≈ 6.05 µM) in data set [9]. The pIC50 (in general, the negative decadic logarithm of the IC50, by convention in mol/L) was 4.34 in data set [2], 4.74 in data set [6] and 5.34 in data set [8]. Further, the figures for the MIC90 in [5] and in data set [7] were 0.125 µg/mL (≈ 0.236 µM) and 0.5 µg/mL (≈ 0.946 µM), respectively.

For the compound `COc1ccc2ncc(F)c([C@@H](O)CC[C@@H]3CCN(C4CC(c5ccccn5)C4)C[C@@H]3C(=O)O)c2c1` (some centres not stated), the MIC was 1 µg/mL (≈ 2.03 µM) in [1], 16 µg/mL (≈ 32.4 µM) in [4] and over 64 µg/mL in data set [9]. The pIC50 in data set [6] is 4.30; in [8], 5.50.

Regarding `COc1ccc2ncc(F)c([C@@H](O)CC[C@@H]3CCN(C4CC(c5cccc(F)c5)C4)C[C@@H]3C(=O)O)c2c1` (some centres not stated), the MIC in data set [1] was at most 0.0625 µg/mL; in [3], 16 µg/mL (≈ 31.3 µM); in [4], 0.25 µg/mL (≈ 0.49 µM); in data set [9] it was 16 µg/mL (≈ 31.3 µM). The MIC90 – broadly, the lowest concentration that inhibits either 90% of growth or 90% of the strains tested, depending on the study – in data set [5] is 0.25 µg/mL (≈ 0.49 µM); in data set [7], 0.5 µg/mL (≈ 0.979 µM). Besides, the pIC50 in data set [6] is 4.72; in data set [8], 6.11.

`O=c1ccc2ncc(=O)n3c2n1C[C@H]3CN1CCC(NCc2cc3c(cn2)OCCC3)CC1` [GEPOTIDACIN]: the pIC50 in [2] is 2.88. Also, the Ratio in data set [10] stood at 13.4. Besides, in [11], the Cmax – broadly, the highest concentration seen after dosing – is 7000 to 13000 ng/mL. This compound showed an MIC in data set [9] of 8 to 32 µg/mL (≈ 17.8 to 71.3 µM).

Turning to `COc1ccc2ncc(F)c([C@@H](O)CC[C@@H]3CCN(C4CC(c5ncccc5F)C4)C[C@@H]3C(=O)O)c2c1` (some centres not stated), the MIC in data set [1] was 0.125 µg/mL (≈ 0.244 µM); in data set [3], 32 µg/mL (≈ 62.6 µM); in data set [4] it was 0.5 µg/mL (≈ 0.977 µM); in data set [9] it was 32 µg/mL (≈ 62.6 µM). For the same compound, the pIC50 in [2] was 4.97; in data set [6] it was 4.52; in data set [8] it was 5.20. In addition, the MIC90 in data set [5] came out at 1 µg/mL (≈ 1.95 µM); in [7] it was 2 µg/mL (≈ 3.91 µM).

Take `COc1ccc2nccc([C@@H](O)CC[C@@H]3CCN(C4CC(c5ccccc5)C4)C[C@@H]3C(=O)O)c2c1` (some centres not stated): the fraction unbound (commonly free concentration divided by total concentration) in data set [12] fell in the range of 0.129 to 0.246; in data set [13] it was 0.079 to 0.155; in [16] it was 0.296 to 0.437. For the same compound, the Activity in [14] is 123.1 mg/kg/day. Also, the clearance – broadly, a measure of how efficiently the substance is removed, as volume per time – in data set [15] was 36 mL/min/kg. Further, the MIC in data set [3] is at least 64 µg/mL. Further, the Vd in data set [17] was found to be 1.06 L/kg. The figures for the MIC90 in data set [5] and in data set [7] were 0.25 to 1 µg/mL (≈ 0.527 to 2.11 µM) and 1 to 2 µg/mL (≈ 2.11 to 4.21 µM), respectively. Moreover, the half-life (in general, the time in which the quantity being followed falls by half) was 19.8 min in [18] and 20.4 min in data set [19]. In addition, the pIC50 in data set [6] was 4.49; in data set [8] it was 5.92.

Turning to `COc1ccc2ncc(F)c([C@@H](O)CC[C@@H]3CCN(C4CC(c5cccs5)C4)C[C@@H]3C(=O)O)c2c1` (some centres not stated), the MIC is at most 0.0625 µg/mL in data set [1], 16 µg/mL (≈ 32.1 µM) in data set [3], 0.125 µg/mL (≈ 0.251 µM) in data set [4] and 11.3 µg/mL (≈ 22.7 µM) in data set [9]. Moreover, the MIC90 in data set [5] was 0.125 µg/mL (≈ 0.251 µM); in [7] it was 0.5 µg/mL (≈ 1 µM). Moreover, the values for the pIC50 in [6] and in data set [8] were 5.03 and 6.11, respectively.

`COc1ccc2nccc([C@@H](O)CC[C@@H]3CCN(CCSc4cccs4)C[C@@H]3C(=O)O)c2c1`: the pIC50 in [6] was 4.07; in data set [8], 5.62.

`COc1ccc2ncc(F)c([C@@H](O)CC[C@@H]3CCN(C4CC(c5cc(F)cc(F)c5)C4)C[C@@H]3C(=O)O)c2c1` (some centres not stated): the MIC in data set [1] came out at 0.125 µg/mL (≈ 0.236 µM); in data set [4], 0.35 µg/mL (≈ 0.662 µM); in [9], 5.7 µg/mL (≈ 10.8 µM). Also, the figures for the MIC90 in data set [5] and in data set [7] were 0.25 µg/mL (≈ 0.473 µM) and 1 µg/mL (≈ 1.89 µM), respectively. Besides, the pIC50 in data set [6] is 5.20; in data set [8], 5.92.

`COc1ccc2ncc(F)c([C@@H](O)CC[C@@H]3CCN(C4CC(c5cccc(F)c5F)C4)C[C@@H]3C(=O)O)c2c1` (some centres not stated): the MIC in data set [1] is at most 0.0625 µg/mL; in [3] it was 4 µg/mL (≈ 7.57 µM); in data set [4], at most 0.0625 µg/mL; in data set [9] it was 8 µg/mL (≈ 15.1 µM). In addition, the pIC50 was 4.60 in data set [2], 5.12 in data set [6] and 6.11 in data set [8].

As for `O=c1ccc2ncc(F)c3c2n1C[C@@]3(O)CN1CCC(NCc2cc3c(cn2)OCCO3)CC1`, the MIC in data set [1] came to 0.125 µg/mL (≈ 0.267 µM); in [3], 8 µg/mL (≈ 17.1 µM); in [4], 0.31 µg/mL (≈ 0.663 µM); in data set [9], 4 µg/mL (≈ 8.56 µM). Further, the pIC50 in [2] is under 3.52; in data set [6], 5.30; in [8] it was 6.35. Besides, the values for the MIC90 in data set [5] and in [7] were 0.5 µg/mL (≈ 1.07 µM) and 0.125 µg/mL (≈ 0.267 µM), respectively.

`COc1ccc2ncc(F)c([C@@H](O)CC[C@@H]3CCN(C4CC(c5ccno5)C4)C[C@@H]3C(=O)O)c2c1` (some centres not stated): the MIC in [1] is 0.5 µg/mL (≈ 1.03 µM); in data set [4] it was 4 µg/mL (≈ 8.27 µM); in data set [9] it was over 64 µg/mL. In addition, the pIC50 in data set [2] is under 3.52; in data set [6] it was 4.45; in data set [8], 5.57.

Values taken from ChEMBL document CHEMBL4033742, “Novel 3-fluoro-6-methoxyquinoline derivatives as inhibitors of bacterial DNA gyrase and topoisomerase IV” (Bioorg Med Chem Lett, 2017).
